Assay results from ChEMBL document CHEMBL1130365, “4-Sulfonamidoanilide tertiary carbinols: A novel series of potassium channel openers” (Bioorg Med Chem Lett, 1997).

Each compound was assayed against Sulfonylurea receptors; K-ATP channels (Homo sapiens, UniProt O60706+Q09428+Q14654+Q15842) (assay: Compound was measured in vitro for potassium channel opening (PCO) activity).
Assay type: protein-complex assay, Cavia porcellus

Row | IC50 [µM] | SMILES
1 | > 30 | CC(O)(C(=O)Nc1ccc(/C(=N\O)c2ccccc2)cc1)C(F)(F)F (mixture of isomers)
2 | > 30 | CC(O)(C(=O)Nc1ccc([C@@H](O)c2ccccc2)cc1)C(F)(F)F (mixture of isomers)
3 | > 30 | CC(O)(C(=O)Nc1ccc([C@H](O)c2ccccc2)cc1)C(F)(F)F (mixture of isomers)
4 | > 30 | CC(O)(C(=O)Nc1ccc(S(=O)(=O)N(c2ccccc2)c2ccccc2)cc1)C(F)(F)F (racemic)
5 | > 30 | CO/N=C(/c1ccccc1)c1ccc(NC(=O)C(C)(O)C(F)(F)F)cc1 (racemic)
6 | > 30 | CC(O)(C(=O)Nc1ccc(S(=O)(=O)Nc2ccccc2)cc1)C(F)(F)F (racemic)
7 | 4.58 | CC(O)(C(=O)Nc1ccc(S(=O)(=O)N2CCSCC2)cc1)C(F)(F)F (racemic)
8 | 5.85 | CC(O)(C(=O)Nc1ccc(S(=O)(=O)N2CCOCC2)cc1)C(F)(F)F (racemic)
9 | > 30 | CCC(C)N(C(C)CC)S(=O)(=O)c1ccc(NC(=O)C(C)(O)C(F)(F)F)cc1 (racemic)
10 | > 30 | CC(O)(C(=O)Nc1ccc(Sc2ccccc2)cc1)C(F)(F)F (racemic)
11 | > 30 | CC(O)(C(=O)Nc1ccc(-c2nn[nH]n2)cc1)C(F)(F)F (racemic)
12 | 0.48 | CN(C)S(=O)(=O)c1ccc(NC(=O)C(C)(O)C(F)(F)F)cc1 (racemic)
13 | 0.81 | CCN(CC)S(=O)(=O)c1ccc(NC(=O)C(C)(O)C(F)(F)F)cc1 (racemic)
14 | 0.88 | CC(O)(C(=O)Nc1ccc(S(=O)(=O)N2CCCC2)cc1)C(F)(F)F (racemic)
15 | 30.9 | Cn1nnnc1-c1ccc(NC(=O)C(C)(O)C(F)(F)F)cc1 (racemic)
16 | 6.44 | CCCN(CCC)S(=O)(=O)c1ccc(NC(=O)C(C)(O)C(F)(F)F)cc1 (racemic)
17 | > 30 | CC(C)CN(CC(C)C)S(=O)(=O)c1ccc(NC(=O)C(C)(O)C(F)(F)F)cc1 (racemic)
18 | > 30 | CC(O)(C(=O)Nc1ccc(S(=O)(=O)N2CCNCC2)cc1)C(F)(F)F (racemic)
19 | 9.25 | CC(O)(C(=O)Nc1ccc(S(=O)(=O)N2CCCCC2)cc1)C(F)(F)F (racemic)
20 | 12.8 | CC(O)(C(=O)Nc1ccc(S(N)(=O)=O)cc1)C(F)(F)F (racemic)

Row | SMILES | IC50 [µM]
21 | CCN(CC)C(=O)c1ccc(NC(=O)C(C)(O)C(F)(F)F)cc1 (racemic) | > 30
